Results taken from the supplement of paper PMC10331698.
± gives the standard deviation of the averaged measurements.

Experiments:
Experiment in all cases: level (log10 ratio to DMSO vehicle control); higher = higher biomarker level / cell amount than vehicle control
Conditions in all cases: in DMSO
[1] = compound: C=CC(=O)OCC(F)(F)C(F)(F)C(F)(F)C(F)(F)C(F)(F)C(F)(F)C(F)(F)C(F)F [1H,1H,9H-Perfluorononyl acrylate]
Description: (§1)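 BioMAP Diversity Plus panel of 12 human primary cell co-culture systems (3C, 4H, LPS, SAg, BT, BF4T, BE3C, CASM3C, HDF3CGF, KF3CT, MyoF, Mphg). Compounds were added 1 h before stimulation and left for 24 h (MyoF 48 h; BT 72 h for soluble read-outs or 6 d for IgG). Biomarkers were read by ELISA, cytotoxicity by SRB, PBMC viability and proliferation by Alamar Blue. Each well value was divided by the mean of 8 DMSO control wells on the same plate and log10 transformed; duplicate blinded samples were tested at 4 concentrations.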

[2] = compound: C=CC(=O)OCCC(F)(F)C(F)(F)C(F)(F)C(F)(F)C(F)(F)C(F)(F)C(F)(F)C(F)(F)F [8:2 Fluorotelomer acrylate]
Description: as §1

[3] = compound: FC(F)(F)C(F)(F)C(F)(F)C(F)(F)CCI [1H,1H,2H,2H-Perfluorohexyl iodide]
Description: as §1

[4] = compound: O=P(O)(O)CCC(F)(F)C(F)(F)C(F)(F)C(F)(F)C(F)(F)C(F)(F)F [2-(Perfluorohexyl)ethylphosphonic acid]
Description: as §1

[5] = compound: O=S(=O)(O)CCC(F)(F)C(F)(F)C(F)(F)C(F)(F)F [4:2 Fluorotelomer sulfonic acid]
Description: as §1

[6] = compound: O=S(=O)(OCC(F)(F)F)C(F)(F)C(F)(F)C(F)(F)C(F)(F)F [2,2,2-Trifluoroethyl perfluorobutanesulfonate]
Description: as §1

Test System | level (log10) ([1]; 6700 nM) | level (log10) ([1]; 20000 nM) | level (log10) ([1]; 60000 nM) | level (log10) ([2]; 6700 nM) | level (log10) ([2]; 20000 nM) | level (log10) ([2]; 60000 nM) | level (log10) ([3]; 6700 nM) | level (log10) ([3]; 20000 nM) | level (log10) ([3]; 60000 nM) | level (log10) ([4]; 6700 nM) | level (log10) ([4]; 20000 nM) | level (log10) ([4]; 60000 nM) | level (log10) ([5]; 6700 nM) | level (log10) ([5]; 20000 nM) | level (log10) ([5]; 60000 nM) | level (log10) ([6]; 6700 nM) | level (log10) ([6]; 20000 nM) | level (log10) ([6]; 60000 nM)
BE3C:MMP-9 | 0.0015 ± 0.0035 | -0.0185 ± 0.012 | 0 ± 0.021 | -0.027 ± 0.0071 | -0.016 ± 0.0042 | -0.011 ± 0.024 | 0.0015 ± 0.05 | -0.006 ± 0.028 | 0.029 ± 0.047 | -0.019 ± 0.0042 | -0.0135 ± 0.012 | 0.007 ± 0.034 | -0.0055 ± 0.005 | -0.0045 ± 0.018 | 0.0135 ± 0.0092 | -0.0355 ± 0.021 | -0.041 ± 0.033 | -0.061 ± 0.028
HDF3CGF:Collagen III | -0.096 ± 0.03 | -0.102 ± 0.022 | -0.124 ± 0.016 | 0.032 ± 0.024 | 0.0315 ± 0.019 | 0.086 ± 0.014 | -0.0145 ± 0.021 | -0.0185 ± 0.052 | -0.035 ± 0.047 | 0.0135 ± 0.0078 | 0.0075 ± 0.018 | -0.0305 ± 0.012 | -0.0795 ± 0.13 | -0.0585 ± 0.14 | -0.0265 ± 0.09 | -0.0265 ± 0.018 | -0.0345 ± 0.033 | -0.0995 ± 0.037
BE3C:Keratin 8/18 | -0.037 ± 0.011 | -0.0165 ± 0.005 | -0.0355 ± 0.04 | -0.013 ± 0.0014 | -0.014 ± 0.0085 | 0.0085 ± 0.033 | 0 ± 0.0099 | -0.0095 ± 0.013 | -0.006 ± 0.0014 | -0.012 ± 0.0071 | -0.0175 ± 0.0021 | 0.0115 ± 0.03 | 0.0065 ± 0.0021 | -0.002 ± 0.0014 | 0.0005 ± 0.0035 | -0.0055 ± 0.005 | -0.0075 ± 0.015 | -0.009 ± 0.0085
MyoF:Collagen III | 0.0015 ± 0.005 | -0.029 ± 0.011 | -0.102 ± 0.0014 | -0.0105 ± 0.0078 | -0.019 ± 0.0085 | -0.03 ± 0.0028 | 0.0045 ± 0.0092 | -0.007 ± 0.0014 | -0.007 ± 0.021 | 0.003 ± 0.0042 | 0.009 ± 0.0014 | -0.009 ± 0.031 | -0.013 ± 0.016 | -0.032 ± 0.0028 | -0.0045 ± 0.011 | -0.013 ± 0.0085 | -0.006 ± 0.016 | -0.0365 ± 0.005
KF3CT:CXCL9/MIG | -0.0145 ± 0.0035 | -0.007 ± 0.017 | -0.019 ± 0.0057 | -0.0065 ± 0.0092 | 0.0005 ± 0.0035 | 0.011 ± 0.0085 | 0.004 ± 0.0099 | 0.0095 ± 0.011 | 0.0135 ± 0.033 | 0.0055 ± 0.0021 | -0.001 ± 0.0099 | 0.006 ± 0.0071 | 0.0005 ± 0.0021 | 0.004 ± 0.016 | 0.0105 ± 0.016 | 0.023 ± 0.021 | 0.0095 ± 0.028 | 0.0015 ± 0.053
